Laboratory results taken from US9452154B2, “Methods for treating HCV” (Gilead Sciences, Inc., priority 2010, dated 2016).
Several values for one entry are separate records, joined by “and”; a condition that tells them apart may be missing. Equal values may be shown once. Read-outs that look alike come from different tables or passages of the source.

Assays:
[1] = Biological Example 3: cytotoxicity (calcein AM), CC50; format: cell-based; settings: human, Huh-7 cells carrying a HCV genotype 1a replicon; HCV genotype 1a replicon cells; calcein AM
Experimental: The HCV replicon assay was a multiplex assay which can assess both cytotoxicity and anti-replicon activity from the same well. The CC50 assay was performed first.
The cytotoxicity effect was determined by calcein AM conversion to fluorescent product. The percent cytotoxicity was calculated by equation 1:
(§1) [formula] where XC is the fluorescence signal from the compound-treated well; MB is the average fluorescence signal from puromycin-treated wells; MD is the average fluorescence signal from DMSO-treated wells. The anti-HCV replication activity was determined by the luminescence signal generated from the reporter renilla luciferase of the HCV replicon. The percent inhibition on HCV replicon was calculated using equation 1, where XC is the luminescence signal from compound-treated well; MB is average luminescence signal from the ITMN-191-treated wells; MD is the average luminescence signal from DMSO-treated wells.
(§2) Both CC50 and EC50 values were obtained using Pipeline Pilot 5.0 software package (Accelrys, San Diego, Calif.) by nonlinear regression fitting of experimental data to equation 2: […]

[2] = test system: GT1b and GT1a mutant replicons; test: Biological Example 8: summary of cross resistance of mutant replicons; format: cell-based, HCV
Experimental: (§3) GT1b and GT1a replicons carrying Renilla Luciferase reporter were used to generate the mutant replicons. The mutations were introduced into the replicon construct by site-directed mutagenesis and confirmed by sequencing. Mutant replicon RNAs were generated from DNA by in vitro transcription and transfected into Huh-7 Lunet or C1 cells
(§4) Compounds were serially diluted 1:3 in 100% DMSO (Sigma). These serial dilutions were added to the cells at a 1:200 dilution to achieve a final concentration of 0.5% DMSO in a total volume of 200 μL. […] EC50 values were calculated using Prism.
(§5) For comparison, a fold change of 0-3 is considered “sensitive”, a fold change of 3-10 is considered “low”, a fold change of 10-50 is considered “medium” and a fold change of greater than […] is considered “high”.

[3] = test system: HCV genotype 1a replicon; test: Biological Example 3: antiviral combination studies with Compound 4 (MacSynergy II); settings: in combination with Compound 4
[4] = test system: GT-1b Huh-lunet cells; test: Biological Example 4: antiviral combination studies with Compound 5 (MacSynergy II); format: cell-based, HCV; settings: in combination with Compound 5, 1b replicon cells
[5] = test system: HCV 1b replicon system; test: Biological Example 5: antiviral combination studies with Compound 6 (MacSynergy II); format: cell-based; settings: in combination with Compound 6
[6] = test system: HCV genotype 1a replicon; test: Biological Example 3: HCV genotype 1a replicon assay, EC50; format: cell-based; settings: Hepatitis C virus, 72 h, 3 days, read-out: EC50
Experimental: The HCV genotype 1a replicon cell line used in this study was described previously. The cells were grown in cell culture medium containing Dulbecco's Modified Eagle Medium (DMEM) with GlutaMAX (Gibco, Carlsbad, Calif., Cat#10569-044), supplemented with 10% FBS (HyClone, Logan, Utah, Cat#SH30071.03), 100 Units/mL Penicillin, 100 μg/mL Streptomycin (Gibco, Carlsbad, Calif., Cat#15140-122), and 0.1 mM non-essential amino acids (Gibco, Carlsbad, Calif., Cat#11140-050). Replicon cells were maintained in 0.5 mg/mL Geneticin (Invitrogen, Carlsbad, Calif., Cat#10131-035) to prevent the loss of HCV replicon. The cells were passaged every 3-4 days before reaching confluency.
as §1, §2

[7] = human; 800 mg/day; cited from earlier work
[8] = test system: NS3 GT1a mutant replicons; format: cell-based, HCV
Experimental: as §3, §4, §5

[9] = test system: NS3 GT1b mutant replicons; format: cell-based, HCV
Experimental: as §3, §4, §5

[10] = test system: Huh-7 cells carrying a HCV genotype 1a replicon; test: Biological Example 3: cytotoxicity in combination studies (MacSynergy II)
[11] = test system: Genotype 1b replicon cells; test: Biological Example 6: compound concentration required to suppress replicon RNA by 1-1.5 log over 6 days (QRT-PCR); format: cell-based, HCV; settings: 6 day assay
Experimental: Flasks were incubated at 37° C., media and compounds were refreshed every two days. After 6 days of incubation the replicon cells were collected for RNA extraction and replicon RNA QRT-PCR analysis.

[12] = Drug-drug interaction: exposure on co-administration with Compound 2
[13] = all single NS3 PI-resistant mutants
[14] = triple class mutants that confer resistance to PI, NS5A and Compound 1

SMILES: NC(=O)c1ncn([C@@H]2O[C@H](CO)[C@@H](O)[C@H]2O)n1 [Ribavirin, 1-β-D-ribofuranosyl-1H-1,2,4-Triazole-3-carboxamide, reference compound]
- CC50 at 3 days [1]: > 88.8 µM
- susceptibility of mutants [2, 13]: full susceptibility
- susceptibility of mutants [2, 14]: susceptible
- Antagonism Volume [3]: −43 nM^2% and −43 ± 20 nM^2%
- Synergy Volume [3]: 1 ± 1 nM^2%
- Antagonism Volume [4]: −12 ± 9 nM^2
- Interaction [4]: Additive
- Synergy Volume [4]: 12 ± 8 nM^2
- Antagonism Volume [5]: −0.5 ± 0.1 nM^2
- Interaction [5]: Moderate Synergy
- Synergy Volume [5]: 61 nM^2 and 61 ± 0.5 nM^2
- EC50 [6]: 36.5 ± 17.5 µM
- steady-state plasma concentration [7]: 6 to 11 µM

SMILES: CC(C)OC(=O)[C@H](C)N[P@](=O)(OC[C@H]1O[C@@](C#N)(c2ccc3c(N)ncnn23)[C@](C)(O)[C@@H]1OC(=O)C(C)C)Oc1ccccc1 [Compound 4]
- fold change in EC50 vs wild-type GT1a ([8]; mutant A156T): 0.2 fold
- fold change in EC50 vs wild-type GT1a ([8]; mutant D168A): 0.9 fold
- fold change in EC50 vs wild-type GT1a ([8]; mutant D168E): 1.5 fold
- fold change in EC50 vs wild-type GT1a ([8]; mutant D168G): 0.8 fold
- fold change in EC50 vs wild-type GT1a ([8]; mutant D168H): 1.0 fold
- fold change in EC50 vs wild-type GT1a ([8]; mutant D168N): 1.0 fold
- fold change in EC50 vs wild-type GT1a ([8]; mutant D168V): 1.4 fold
- fold change in EC50 vs wild-type GT1a ([8]; mutant D168Y): 1.0 fold
- fold change in EC50 vs wild-type GT1a ([8]; mutant R155I): 0.6 fold
- fold change in EC50 vs wild-type GT1a ([8]; mutant R155K): 0.7 fold
- fold change in EC50 vs wild-type GT1a ([8]; mutant R155K + L31M): 0.4 fold
- fold change in EC50 vs wild-type GT1a ([8]; mutant R155K + L31M + Y448H): 0.6 fold
- fold change in EC50 vs wild-type GT1a ([8]; mutant R155K + M28T): 0.2 fold
- fold change in EC50 vs wild-type GT1a ([8]; mutant R155K + M28T + Y448H): 0.3 fold
- fold change in EC50 vs wild-type GT1a ([8]; mutant R155K + Q30H + Y448H): 0.9 fold
- fold change in EC50 vs wild-type GT1a ([8]; mutant R155K + Q30R): 0.9 fold
- fold change in EC50 vs wild-type GT1a ([8]; mutant R155K + Y93H): 0.3 fold
- fold change in EC50 vs wild-type GT1a ([8]; mutant R155K + Y488H (first line, r20)): 0.7 fold
- fold change in EC50 vs wild-type GT1a ([8]; mutant R155K + Y488H (second line, r26)): 0.5 fold
- fold change in EC50 vs wild-type GT1a ([8]; mutant R155M): 0.4 fold
- fold change in EC50 vs wild-type GT1a ([8]; mutant R155S): 0.2 fold
- fold change in EC50 vs wild-type GT1a ([8]; mutant R155T): 0.2 fold
- fold change in EC50 vs wild-type GT1a ([8]; mutant R155W): 0.7 fold
- fold change in EC50 vs wild-type GT1a ([8]; mutant R155k + Q30H): 0.6 fold
- fold change in EC50 vs wild-type GT1b ([9]; mutant A156D): 0.4 fold
- fold change in EC50 vs wild-type GT1b ([9]; mutant A156G): 0.6 fold
- fold change in EC50 vs wild-type GT1b ([9]; mutant A156T): 0.9 fold
- fold change in EC50 vs wild-type GT1b ([9]; mutant A156V): 0.6 fold
- fold change in EC50 vs wild-type GT1b ([9]; mutant D168A): 1.0 fold
- fold change in EC50 vs wild-type GT1b ([9]; mutant D168E): 1.0 fold
- fold change in EC50 vs wild-type GT1b ([9]; mutant D168E + L31V + Y448H): 1.1 fold
- fold change in EC50 vs wild-type GT1b ([9]; mutant D168E + Y93H + Y448H): 0.9 fold
- fold change in EC50 vs wild-type GT1b ([9]; mutant D168E + Y448H): 0.7 fold
- fold change in EC50 vs wild-type GT1b ([9]; mutant D168G): 0.7 fold
- fold change in EC50 vs wild-type GT1b ([9]; mutant D168H): 1.7 fold
- fold change in EC50 vs wild-type GT1b ([9]; mutant D168H + C445F): 0.5 fold
- fold change in EC50 vs wild-type GT1b ([9]; mutant D168L + C445F): 0.3 fold
- fold change in EC50 vs wild-type GT1b ([9]; mutant D168N): 1.2 fold
- fold change in EC50 vs wild-type GT1b ([9]; mutant D168T): 1.4 fold
- fold change in EC50 vs wild-type GT1b ([9]; mutant D168V): 0.9 fold
- fold change in EC50 vs wild-type GT1b ([9]; mutant D168V + C445F): 0.7 fold
- fold change in EC50 vs wild-type GT1b ([9]; mutant D168V + L31V + Y448H): 0.6 fold
- fold change in EC50 vs wild-type GT1b ([9]; mutant D168V + Y93H + Y448H): 0.8 fold
- fold change in EC50 vs wild-type GT1b ([9]; mutant D168V + Y448H): 0.9 fold
- fold change in EC50 vs wild-type GT1b ([9]; mutant D168Y): 0.5 fold
- fold change in EC50 vs wild-type GT1b ([9]; mutant L31V + D168E): 1.6 fold
- fold change in EC50 vs wild-type GT1b ([9]; mutant L31V + D168V): 1.1 fold
- fold change in EC50 vs wild-type GT1b ([9]; mutant R155C): 0.8 fold
- fold change in EC50 vs wild-type GT1b ([9]; mutant R155G): 0.2 fold
- fold change in EC50 vs wild-type GT1b ([9]; mutant R155K): 0.6 fold
- fold change in EC50 vs wild-type GT1b ([9]; mutant R155L): 0.7 fold
- fold change in EC50 vs wild-type GT1b ([9]; mutant R155Q): 0.8 fold
- fold change in EC50 vs wild-type GT1b ([9]; mutant R155W): 0.5 fold
- fold change in EC50 vs wild-type GT1b ([9]; mutant Y93H + D168E): 1.3 fold
- fold change in EC50 vs wild-type GT1b ([9]; mutant Y93H + D168V): 1.0 fold
- CC50 at 3 days [1]: > 44.4 µM
- Antagonism Volume (cytotoxicity) ([10]; in combination with Ribavirin): −1 ± 2 μM^2%
- Interaction (cytotoxicity) ([10]; in combination with Ribavirin): Additivity (Additivity: ≦25 and >−25 nM^2%)
- Synergy Volume (cytotoxicity) ([10]; in combination with Ribavirin): 4 ± 3 μM^2%
- susceptibility of mutants [2, 13]: full susceptibility
- susceptibility of mutants [2, 14]: susceptible
- Compound concentration able to induce replicon RNA 1-1.5 log drop [11]: 1000 nM

SMILES: Fc1ccccc1-c1nc2ccn(Cc3ccc(-c4ccc(C(F)(F)F)cc4C(F)(F)F)nn3)cc-2n1 [Compound 1, 5-((6-(2,4-bis(trifluoromethyl)phenyl)pyridazin-3-yl)methyl)-2-(2-fluorophenyl)-5H-imidazo[4,5-c]pyridine]
- CC50 at 3 days [1]: > 44.4 µM
- Antagonism Volume (cytotoxicity) ([10]; in combination with Compound 4): 0 ± 1 nM^2%
- Interaction (cytotoxicity) ([10]; in combination with Compound 4): Additivity (Additivity: ≦25 and >−25 nM^2%)
- Synergy Volume (cytotoxicity) ([10]; in combination with Compound 4): 13 ± 11 nM^2%
- susceptibility of mutants [2, 13]: full susceptibility
- Antagonism Volume [3]: −1 ± 2 nM^2%
- Synergy Volume [3]: 34 ± 26 nM^2%
- Compound concentration able to induce replicon RNA 1-1.5 log drop [11]: 10 nM
- Antagonism Volume [4]: 0 ± 0 nM^2
- Synergy Volume [4]: 70 ± 26 nM^2
- Antagonism Volume [5]: −17 ± 0.7 nM^2
- Interaction [5]: Minor Synergy
- Synergy Volume [5]: 34 nM^2 and 34 ± 9.9 nM^2
- EC50 [6]: 0.019 ± 0.008 µM
- increase of exposure when combined with Compound 2 [12]: 2-3 ×
